Values quoted from earlier work, collected in patent US20140066504A1, “ANALOGS AND PRODRUGS OF BUMETANIDE; COMPOSITIONS AND METHODS OF USE” (priority 2012, published 2014).

Experiments:
rat hippocampal slices = conditions: afterdischarge, high-K+, zero-magnesium, 4-AP, bicuculline, zero-calcium models
[1] = system: adults with refractory epilepsy
neocortex = conditions: intravenously administered, human patients
NKCC1 = molecular target: T1, NKCC1 (Homo sapiens, UniProt P55011); conditions: for affinity for NKCC1 over KCC2: selectivity
T1 sequence (P55011 1-1212): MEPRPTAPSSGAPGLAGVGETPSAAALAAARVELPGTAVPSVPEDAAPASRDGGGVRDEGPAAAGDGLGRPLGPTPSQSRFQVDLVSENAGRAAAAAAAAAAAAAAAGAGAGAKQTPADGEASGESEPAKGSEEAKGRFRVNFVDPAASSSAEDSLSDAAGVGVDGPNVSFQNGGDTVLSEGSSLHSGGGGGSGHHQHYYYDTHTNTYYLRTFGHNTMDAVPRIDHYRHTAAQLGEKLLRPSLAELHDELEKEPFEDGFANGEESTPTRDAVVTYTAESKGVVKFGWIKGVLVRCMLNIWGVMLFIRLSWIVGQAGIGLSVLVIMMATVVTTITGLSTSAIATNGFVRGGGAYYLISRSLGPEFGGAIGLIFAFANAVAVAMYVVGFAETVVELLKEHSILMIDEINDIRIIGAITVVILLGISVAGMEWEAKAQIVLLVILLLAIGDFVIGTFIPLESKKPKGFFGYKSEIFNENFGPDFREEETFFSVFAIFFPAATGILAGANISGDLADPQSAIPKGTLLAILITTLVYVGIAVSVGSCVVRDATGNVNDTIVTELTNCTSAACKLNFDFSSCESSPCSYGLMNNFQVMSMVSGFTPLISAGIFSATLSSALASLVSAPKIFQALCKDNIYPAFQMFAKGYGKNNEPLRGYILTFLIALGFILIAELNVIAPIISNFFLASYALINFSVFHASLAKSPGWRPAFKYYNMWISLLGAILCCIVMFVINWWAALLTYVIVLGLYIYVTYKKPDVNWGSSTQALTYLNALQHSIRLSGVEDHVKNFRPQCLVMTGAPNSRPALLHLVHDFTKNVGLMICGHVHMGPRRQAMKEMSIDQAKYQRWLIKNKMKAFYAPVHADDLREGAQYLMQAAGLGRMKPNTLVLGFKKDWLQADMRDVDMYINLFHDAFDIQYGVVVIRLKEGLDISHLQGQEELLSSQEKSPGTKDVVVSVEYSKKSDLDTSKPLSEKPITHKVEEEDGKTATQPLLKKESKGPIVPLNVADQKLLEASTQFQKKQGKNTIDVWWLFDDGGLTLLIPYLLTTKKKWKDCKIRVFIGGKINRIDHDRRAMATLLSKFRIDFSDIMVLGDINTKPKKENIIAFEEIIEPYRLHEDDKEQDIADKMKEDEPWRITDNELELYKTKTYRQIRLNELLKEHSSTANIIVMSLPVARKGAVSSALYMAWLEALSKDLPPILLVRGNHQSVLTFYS

[2] = system: audiogenic seizure-prone rats; conditions: audiogenic seizure-prone animals
primate cortex = conditions: relative to furosemide

Structure (SMILES)	effect on epileptiform activity (rat hippocampal slices)	effect on seizure frequency [1]	effect on conditioned anxiety (rat models of anxiety)	effect on interictal spiking and stimulation-evoked afterdischarges (neocortex)	effect on activity-driven glial cell swelling (glial cell)	affinity for NKCC1 over KCC2 (NKCC1)	effect on sound-triggered seizures [2]	blocking epileptiform activity (focal bicuculline or 4-AP) and stimulation-evoked afterdischarges (primate cortex)	NKCC1 antagonist potency and specificity relative to furosemide (NKCC1)	effect on kainic acid status (rats)
NS(=O)(=O)c1cc(C(=O)O)c(NCc2ccco2)cc1Cl [furosemide]	block epileptiform activity	significantly reduced seizure frequency	significantly reduce conditioned anxiety	blocked spontaneously occurring interictal spiking and stimulation-evoked afterdischarges	block activity-driven glial cell swelling	significantly greater affinity for NKCC1 over KCC2	prevented sound-triggered seizures	–	–	–
CCCCNc1cc(C(=O)O)cc(S(N)(=O)=O)c1Oc1ccccc1 [bumetanide]	–	–	significantly reduce conditioned anxiety	–	–	significantly greater affinity for NKCC1 over KCC2	more potent than furosemide	more potent than furosemide	more potent and specific antagonist than furosemide	more potent than furosemide
